The record followed here is ChEMBL document CHEMBL1201862, “PubChem BioAssay data set” (2004).

Common to all, as to assay: NCI tumour cell line growth inhibition, 48 h
Assay [1] deals with SF-295.
Assay [2] concerns T47D.
Assay [3] deals with OVCAR-3.
The test system of assay [4] is HCC 2998.
For assay [5], the system named is OVCAR-5.
Assay [6] concerns UO-31.
The subject of assay [7] is HCT-116.
In assay [8] the test system is RPMI-8226.
The subject of assay [9] is K562.
Assay [10] deals with SF-268.
Assay [11] has as its system SK-MEL-5.
Assay [12] deals with NCI-H460.
For assay [13], the system named is ACHN.
Assay [14] deals with LOX IMVI.
The subject of assay [15] is MDA-MB-435.
The test system of assay [16] is SNB-19.
The subject of assay [17] is OVCAR-4.
In assay [18] the test system is HOP-62.
For assay [19], the system named is MDA-MB-231.
For assay [20], the system named is BT-549.

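1) Cells in 96-well plates. 2) Compound, 48 h, 5 concentrations. 3) Linear interpolation between surrounding doses. 4) Unreached endpoint = highest concentration. GI50 is the concentration that inhibits growth by half.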 Active and inactive are the calls of the source. Cut-off read from the data, not from the text of the source: active = GI50 up to about 1.1 µM and inactive = higher.

Consider `CCCCCc1cc2c(cc1O)CC[C@@H]1[C@@H]2CC[C@]2(C)[C@@H](O)CC[C@@H]12`, for which the GI50 in assay [1] was 13.4 µM (inactive); in assay [2] it was 24.5 µM (inactive); in [3], 14.3 µM (inactive); in assay [4], 24.3 µM (inactive); in assay [5] it was 18.8 µM (inactive); in assay [6], 13.9 µM (inactive). Moreover, the GI50 was 17.3 µM (inactive) in assay [7]; 19.1 µM (inactive) in assay [8]; 16.7 µM (inactive) in [9]; 17.7 µM (inactive) in [10]; 19.8 µM (inactive) in [11]; 17.4 µM (inactive) in [12]. For the same molecule, the GI50 was 14.1 µM (inactive) in assay [13]; 18.2 µM (inactive) in assay [14]; 15.7 µM (inactive) in assay [15]; 18.8 µM (inactive) in [16]; 21.6 µM (inactive) in [17]; 22.4 µM (inactive) in assay [18]. For the same molecule, the GI50 in assay [19] is 18.4 µM (inactive).
Regarding `O=C1NCCCNCCCNCCCNC(=O)c2cccc1n2`, the GI50 in [1], in [3], in assay [4], in assay [5], in assay [6] and in assay [7] was > 100 µM (inactive) throughout. The GI50 in assay [8], in assay [9], in assay [10], in assay [20], in assay [11] and in assay [12] was > 100 µM (inactive) throughout. Further, the GI50 in [13], in assay [14], in assay [15], in assay [16], in assay [17] and in assay [18] was > 100 µM (inactive) each time. The GI50 in [19] is > 100 µM (inactive).
For the molecule `COc1c(C)c(C/C=C(\C)CCCCO[Si](C(C)C)(C(C)C)C(C)C)c(OC)c2ccccc12`, the GI50 in [1] is > 100 µM (inactive); in assay [3] it was > 100 µM (inactive); in [4] it was > 10 µM (inactive); in [5], > 100 µM (inactive); in assay [6], > 100 µM (inactive); in assay [7], > 100 µM (inactive). The GI50 in [9], in assay [10], in [20], in assay [11], in assay [12] and in assay [13] was > 100 µM (inactive) throughout. Moreover, the GI50 in assay [14], in assay [15], in [16], in assay [17], in assay [18] and in assay [19] was > 100 µM (inactive) each time.
In the case of `O=[N+]([O-])c1ccc(Cc2nc3cc4ccccc4cc3[nH]2)cc1C(F)(F)F`, the GI50 in assay [1] was 11.9 µM (inactive); in assay [2], 3.33 µM (inactive); in [3], 10.7 µM (inactive); in [4] it was 16.6 µM (inactive); in [5] it was 14.4 µM (inactive); in [6] it was 15.8 µM (inactive). Moreover, the GI50 is 13.9 µM (inactive) in assay [7]; 6.56 µM (inactive) in assay [9]; 13.6 µM (inactive) in assay [10]; 18.2 µM (inactive) in assay [20]; 10.7 µM (inactive) in assay [11]; 7.82 µM (inactive) in assay [12]. Further, the GI50 was 15.8 µM (inactive) in [13]; 18.5 µM (inactive) in assay [14]; 6.12 µM (inactive) in assay [15]; 15.6 µM (inactive) in assay [16]; 17.5 µM (inactive) in [17]; 13.8 µM (inactive) in [18].
For the molecule `CSc1ccc(NC(=S)NN(C)C)cc1`, the GI50 in [1], in [2], in assay [3], in [4], in assay [6] and in assay [7] was > 10 µM (inactive) each time. In addition, the GI50 in [8], in assay [9], in [10], in assay [11], in assay [12] and in [13] was > 10 µM (inactive) throughout. The GI50 in [14], in assay [15], in [16], in [17], in [18] and in assay [19] was > 10 µM (inactive) in each case.
Take `CSC1(CC(=O)N(C)C)C(=O)Nc2ccccc21` (stereo not drawn): the GI50 in assay [1], in assay [2], in assay [3], in assay [4], in assay [5] and in [6] was > 100 µM (inactive) each time. For the same molecule, the GI50 in assay [7], in [8], in assay [9], in assay [10], in assay [20] and in [11] was > 100 µM (inactive) throughout. Further, the GI50 in assay [12], in assay [13], in assay [14], in assay [15], in assay [16] and in assay [17] was > 100 µM (inactive) throughout. Moreover, the GI50 in assay [18] is > 100 µM (inactive).
In the case of `COc1cc(OC)c2nc(C)c(CCCl)c(Cl)c2c1`, the GI50 in assay [1], in assay [3], in assay [4], in assay [5], in assay [6] and in assay [7] was > 100 µM (inactive) each time. The GI50 is > 100 µM (inactive) in assay [8]; > 100 µM (inactive) in [9]; > 100 µM (inactive) in assay [10]; > 100 µM (inactive) in assay [20]; > 10 µM (inactive) in assay [11]; > 100 µM (inactive) in assay [12]. Also, the GI50 in assay [13], in assay [14], in [15], in assay [16], in assay [17] and in assay [18] was > 100 µM (inactive) throughout. Besides, the GI50 in [19] was > 100 µM (inactive).
Regarding `OC(Cc1cnnc2ccccc12)C(Cl)(Cl)Cl` (stereo not drawn), the GI50 in [1], in assay [2], in assay [3], in [4], in assay [6] and in assay [7] was > 10 µM (inactive) throughout. The GI50 in assay [8], in assay [9], in assay [10], in [11], in [12] and in [13] was > 10 µM (inactive) each time. Besides, the GI50 in assay [14], in assay [15], in [16], in assay [17], in [18] and in assay [19] was > 10 µM (inactive) throughout.
Regarding `CN(C)c1n/c(=N/Cc2ccccc2)ss1`, the GI50 in assay [1] is > 10 µM (inactive); in assay [2], > 10 µM (inactive); in assay [3], > 10 µM (inactive); in assay [4], > 9.64 µM (inactive); in assay [5], > 10 µM (inactive); in assay [6], 9.25 µM (inactive). The GI50 in assay [7] is > 10 µM (inactive); in assay [8] it was 2.9 µM (inactive); in [9], 3.21 µM (inactive); in [10], > 10 µM (inactive); in assay [11], > 10 µM (inactive); in assay [12], > 10 µM (inactive). Moreover, the GI50 in assay [13] was > 10 µM (inactive); in [14], > 5.77 µM (inactive); in [15], > 10 µM (inactive); in [16] it was > 10 µM (inactive); in assay [17], > 10 µM (inactive); in assay [18], > 10 µM (inactive). In [19], the GI50 was > 10 µM (inactive).
Take `COc1cc([C@@H]2c3cc4c(cc3[C@@H](Nc3ccc([N+](=O)[O-])cc3C(=O)c3ccccc3)[C@H]3COC(=O)[C@H]23)OCO4)cc(OC)c1OC`: the GI50 is 0.196 µM (active) in [1]; > 100 µM (inactive) in assay [2]; 0.434 µM (active) in assay [3]; 0.436 µM (active) in [4]; 0.555 µM (active) in assay [5]; 0.23 µM (active) in [6]. The GI50 in [7] is 0.23 µM (active); in [8], 0.394 µM (active); in assay [9], 0.156 µM (active); in assay [10], 0.472 µM (active); in assay [11] it was 0.2 µM (active); in assay [12], 0.258 µM (active). Further, the GI50 in assay [13] was 0.304 µM (active); in assay [14] it was 0.281 µM (active); in [15] it was 0.071 µM (active); in assay [16], 0.603 µM (active); in assay [17], > 41.8 µM (inactive); in assay [18], 0.282 µM (active). In addition, the GI50 in assay [19] is 0.548 µM (active).
In the case of `CSc1cc(Cl)c(C)cc1S(=O)(=O)NC(=O)NNc1ccc(F)cc1`, the GI50 was > 100 µM (inactive) in assay [1]; > 100 µM (inactive) in assay [2]; > 100 µM (inactive) in assay [3]; 30 µM (inactive) in [4]; > 100 µM (inactive) in assay [5]; > 100 µM (inactive) in assay [7]. The GI50 in [9] was > 100 µM (inactive); in assay [10], > 100 µM (inactive); in [11] it was > 100 µM (inactive); in assay [12], > 100 µM (inactive); in assay [13], 66.8 µM (inactive); in [14] it was > 100 µM (inactive). Further, the GI50 in [15], in assay [16], in assay [17], in [18] and in assay [19] was > 100 µM (inactive) throughout.
